Data reported in patent publication US20230085307A1, “PYRIDAZINONE COMPOUND AND HERBICIDE” (NISSAN CHEMICAL CORPORATION, priority 2019, published 2023).

How the values were obtained:
[1] = tested on: persian speedwell; assay: Test Example 5: herbicidal effect by foliage application, plastic box (Table 20, symbol R); assay type: in vivo, Persian speedwell (Veronica persica); conditions: foliage application, AAH 320 g/ha, evaluated three weeks after application
In short: (§1)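 Plants were sown into sterilized diluvial soil under about 1.5 cm cover and kept in a greenhouse at 25° C. to 30° C. Fourteen days on, foliage received an even spray of the diluted emulsion. Herbicidal or crop effect was judged three weeks afterwards.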

[2] = tested on: lambsquarters; assay: Test Example 5: herbicidal effect by foliage application, plastic box (Table 20, symbol O); assay type: in vivo, lambsquarters (Chenopodium album); conditions: foliage application, AAH 320 g/ha, evaluated three weeks after application
In short: as §1

[3] = tested on: chickweed; assay: Test Example 5: herbicidal effect by foliage application, plastic box (Table 20, symbol P); assay type: in vivo, common chickweed (Stellaria media); conditions: foliage application, AAH 320 g/ha, evaluated three weeks after application
In short: as §1

[4] = tested on: persian speedwell; assay: Test Example 4: herbicidal effect by soil treatment (Table 19, symbol R); assay type: in vivo, Persian speedwell (Veronica persica); conditions: amount of applied herbicide 320 g/ha
In short: (§2)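 In this soil treatment, the formulated compound reached the seeds only through the soil: seeds were buried about 1.5 cm deep in sterilized diluvial soil, then the diluted emulsion was sprayed over the surface. After three weeks at 25° C. to 30° C. in a greenhouse, effects were graded on criteria from an earlier test.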

[5] = tested on: velvetleaf; assay: Test Example 4: herbicidal effect by soil treatment (Table 19, symbol M); assay type: in vivo, velvetleaf (Abutilon theophrasti); conditions: amount of applied herbicide 320 g/ha
In short: as §2

[6] = tested on: green foxtail; assay: Test Example 5: herbicidal effect by foliage application, plastic box (Table 20, symbol G); assay type: in vivo, green foxtail (Setaria viridis); conditions: foliage application, AAH 320 g/ha, evaluated three weeks after application
In short: as §1

[7] = tested on: blackgrass; assay: Test Example 5: herbicidal effect by foliage application, plastic box (Table 20, symbol J); assay type: in vivo, blackgrass (Alopecurus myosuroides); conditions: foliage application, AAH 320 g/ha, evaluated three weeks after application
In short: as §1

[8] = tested on: southern crabgrass; assay: Test Example 4: herbicidal effect by soil treatment (Table 19, symbol F); assay type: in vivo, southern crabgrass (Digitaria ciliaris); conditions: amount of applied herbicide 320 g/ha
In short: as §2

[9] = tested on: velvetleaf; assay: Test Example 5: herbicidal effect by foliage application, plastic box (Table 20, symbol M); assay type: in vivo, velvetleaf (Abutilon theophrasti); conditions: foliage application, AAH 320 g/ha, evaluated three weeks after application
In short: as §1

[10] = tested on: Italian ryegrass; assay: Test Example 4: herbicidal effect by soil treatment (Table 19, symbol K); assay type: in vivo, Italian ryegrass (Lolium multiflorum); conditions: amount of applied herbicide 320 g/ha
In short: as §2

[11] = tested on: barnyard grass; assay: Test Example 3: herbicidal effect by foliage application, Wagner pot (Table 18, symbol H); assay type: in vivo, barnyard grass (Echinochloa crus-galli); conditions: amount of applied herbicide 320 g/ha
In short: (§3)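 Plants were sown in alluvial soil held under 0.1–0.5 cm standing water and grown 14 days in a greenhouse at 25–30 °C. An emulsifiable formulation, water-diluted to the set dose, was then sprayed onto the foliage, and effects were scored three weeks later using previously defined criteria.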

[12] = tested on: southern crabgrass; assay: Test Example 5: herbicidal effect by foliage application, plastic box (Table 20, symbol F); assay type: in vivo, southern crabgrass (Digitaria ciliaris); conditions: foliage application, AAH 320 g/ha, evaluated three weeks after application
In short: as §1

[13] = tested on: chickweed; assay: Test Example 4: herbicidal effect by soil treatment (Table 19, symbol P); assay type: in vivo, common chickweed (Stellaria media); conditions: amount of applied herbicide 320 g/ha
In short: as §2

[14] = tested on: Chinese sprangletop; assay: Test Example 3: herbicidal effect by foliage application, Wagner pot (Table 18, symbol D); assay type: in vivo, chinese sprangletop (Leptochloa chinensis); conditions: amount of applied herbicide 320 g/ha
In short: as §3

[15] = tested on: wild oat; assay: Test Example 5: herbicidal effect by foliage application, plastic box (Table 20, symbol I); assay type: in vivo, wild oat (Avena fatua); conditions: foliage application, AAH 320 g/ha, evaluated three weeks after application
In short: as §1

[16] = tested on: wild oat; assay: Test Example 4: herbicidal effect by soil treatment (Table 19, symbol I); assay type: in vivo, wild oat (Avena fatua); conditions: amount of applied herbicide 320 g/ha
In short: as §2

[17] = tested on: windgrass; assay: Test Example 5: herbicidal effect by foliage application, plastic box (Table 20, symbol L); assay type: in vivo, windgrass (Apera spica-venti); conditions: foliage application, AAH 320 g/ha, evaluated three weeks after application
In short: as §1

[18] = tested on: blackgrass; assay: Test Example 4: herbicidal effect by soil treatment (Table 19, symbol J); assay type: in vivo, blackgrass (Alopecurus myosuroides); conditions: amount of applied herbicide 320 g/ha
In short: as §2

[19] = tested on: barnyard grass; assay: Test Example 5: herbicidal effect by foliage application, plastic box (Table 20, symbol H); assay type: in vivo, barnyard grass (Echinochloa crus-galli); conditions: foliage application, AAH 320 g/ha, evaluated three weeks after application
In short: as §1

[20] = tested on: rice flat sedge; assay: Test Example 3: herbicidal effect by foliage application, Wagner pot (Table 18, symbol E); assay type: in vivo, rice flat sedge (Cyperus iria); conditions: amount of applied herbicide 320 g/ha
In short: as §3

[21] = tested on: redroot pigweed; assay: Test Example 4: herbicidal effect by soil treatment (Table 19, symbol N); assay type: in vivo, redroot pigweed (Amaranthus retroflexus); conditions: amount of applied herbicide 320 g/ha
In short: as §2

[22] = tested on: Italian ryegrass; assay: Test Example 5: herbicidal effect by foliage application, plastic box (Table 20, symbol K); assay type: in vivo, Italian ryegrass (Lolium multiflorum); conditions: foliage application, AAH 320 g/ha, evaluated three weeks after application
In short: as §1

[23] = tested on: redroot pigweed; assay: Test Example 5: herbicidal effect by foliage application, plastic box (Table 20, symbol N); assay type: in vivo, redroot pigweed (Amaranthus retroflexus); conditions: foliage application, AAH 320 g/ha, evaluated three weeks after application
In short: as §1

[24] = tested on: barnyard grass; assay: Test Example 4: herbicidal effect by soil treatment (Table 19, symbol H); assay type: in vivo, barnyard grass (Echinochloa crus-galli); conditions: amount of applied herbicide 320 g/ha
In short: as §2

[25] = tested on: lambsquarters; assay: Test Example 4: herbicidal effect by soil treatment (Table 19, symbol O); assay type: in vivo, lambsquarters (Chenopodium album); conditions: amount of applied herbicide 320 g/ha
In short: as §2

[26] = tested on: green foxtail; assay: Test Example 4: herbicidal effect by soil treatment (Table 19, symbol G); assay type: in vivo, green foxtail (Setaria viridis); conditions: amount of applied herbicide 320 g/ha
In short: as §2

[27] = tested on: windgrass; assay: Test Example 4: herbicidal effect by soil treatment (Table 19, symbol L); assay type: in vivo, windgrass (Apera spica-venti); conditions: amount of applied herbicide 320 g/ha
In short: as §2

Row | SMILES | R: persian speedwell, herbicidal effect (criteria 0-5) [1] | O: lambsquarters, herbicidal effect (criteria 0-5) [2] | P: chickweed, herbicidal effect (criteria 0-5) [3] | herbicidal effect on R: persian speedwell [4] | herbicidal effect on M: velvetleaf [5] | G: green foxtail, herbicidal effect (criteria 0-5) [6] | J: blackgrass, herbicidal effect (criteria 0-5) [7] | herbicidal effect on F: southern crabgrass [8] | M: velvetleaf, herbicidal effect (criteria 0-5) [9] | herbicidal effect on K: Italian ryegrass [10] | herbicidal effect on H: barnyard grass [11] | F: southern crabgrass, herbicidal effect (criteria 0-5) [12] | herbicidal effect on P: chickweed [13] | herbicidal effect on D: Chinese sprangletop [14] | I: wild oat, herbicidal effect (criteria 0-5) [15] | herbicidal effect on I: wild oat [16] | L: windgrass, herbicidal effect (criteria 0-5) [17] | herbicidal effect on J: blackgrass [18] | H: barnyard grass, herbicidal effect (criteria 0-5) [19] | herbicidal effect on E: rice flat sedge [20] | further results
1 | Cc1nn(C)c(=O)c(-c2c(-c3ccc(OC(F)F)cc3)sc3ccc(F)cc23)c1OCC#N [2-303] | 5 (Herbicidal rate of 90% or more (almost completely withered)) | 5 (Herbicidal rate of 90% or more (almost completely withered)) | 5 (Herbicidal rate of 90% or more (almost completely withered)) | 4 (Herbicidal rate of 70% or more and less than 90%) | 0 (Herbicidal rate of 5% or less (almost no effect)) | 5 (Herbicidal rate of 90% or more (almost completely withered)) | 0 (Herbicidal rate of 5% or less (almost no effect)) | 0 (Herbicidal rate of 5% or less (almost no effect)) | 5 (Herbicidal rate of 90% or more (almost completely withered)) | 0 (Herbicidal rate of 5% or less (almost no effect)) | 5 (Herbicidal rate of 90% or more (almost completely withered)) | 0 (Herbicidal rate of 5% or less (almost no effect)) | 3 (Herbicidal rate of 40% or more and less than 70%) | 4 (Herbicidal rate of 70% or more and less than 90%) | 0 (Herbicidal rate of 5% or less (almost no effect)) | 0 (Herbicidal rate of 5% or less (almost no effect)) | 0 (Herbicidal rate of 5% or less (almost no effect)) | 0 (Herbicidal rate of 5% or less (almost no effect)) | 4 (Herbicidal rate of 70% or more and less than 90%) | 3 (Herbicidal rate of 40% or more and less than 70%) | herbicidal effect on N: redroot pigweed [21]: 0 (Herbicidal rate of 5% or less (almost no effect)); K: Italian ryegrass, herbicidal effect (criteria 0-5) [22]: 3 (Herbicidal rate of 40% or more and less than 70%); N: redroot pigweed, herbicidal effect (criteria 0-5) [23]: 5 (Herbicidal rate of 90% or more (almost completely withered)); herbicidal effect on H: barnyard grass [24]: 0 (Herbicidal rate of 5% or less (almost no effect)); herbicidal effect on O: lambsquarters [25]: 0 (Herbicidal rate of 5% or less (almost no effect)); herbicidal effect on G: green foxtail [26]: 0 (Herbicidal rate of 5% or less (almost no effect)); herbicidal effect on L: windgrass [27]: 0 (Herbicidal rate of 5% or less (almost no effect))
2 | CCCC(=O)Oc1c(C)nn(C)c(=O)c1-c1c(-c2ccc(F)cc2F)sc2ccc(F)cc12 [2-343] | 5 (Herbicidal rate of 90% or more (almost completely withered)) | 4 (Herbicidal rate of 70% or more and less than 90%) | 5 (Herbicidal rate of 90% or more (almost completely withered)) | 5 (Herbicidal rate of 90% or more (almost completely withered)) | 3 (Herbicidal rate of 40% or more and less than 70%) | 5 (Herbicidal rate of 90% or more (almost completely withered)) | 4 (Herbicidal rate of 70% or more and less than 90%) | 3 (Herbicidal rate of 40% or more and less than 70%) | 5 (Herbicidal rate of 90% or more (almost completely withered)) | 5 (Herbicidal rate of 90% or more (almost completely withered)) | 5 (Herbicidal rate of 90% or more (almost completely withered)) | 5 (Herbicidal rate of 90% or more (almost completely withered)) | 3 (Herbicidal rate of 40% or more and less than 70%) | 5 (Herbicidal rate of 90% or more (almost completely withered)) | 3 (Herbicidal rate of 40% or more and less than 70%) | 2 (Herbicidal rate of 20% or more and less than 40%) | 5 (Herbicidal rate of 90% or more (almost completely withered)) | 2 (Herbicidal rate of 20% or more and less than 40%) | 3 (Herbicidal rate of 40% or more and less than 70%) | 4 (Herbicidal rate of 70% or more and less than 90%) | herbicidal effect on N: redroot pigweed [21]: 3 (Herbicidal rate of 40% or more and less than 70%); K: Italian ryegrass, herbicidal effect (criteria 0-5) [22]: 5 (Herbicidal rate of 90% or more (almost completely withered)); N: redroot pigweed, herbicidal effect (criteria 0-5) [23]: 5 (Herbicidal rate of 90% or more (almost completely withered)); herbicidal effect on H: barnyard grass [24]: 3 (Herbicidal rate of 40% or more and less than 70%); herbicidal effect on O: lambsquarters [25]: 2 (Herbicidal rate of 20% or more and less than 40%); herbicidal effect on G: green foxtail [26]: 4 (Herbicidal rate of 70% or more and less than 90%); herbicidal effect on L: windgrass [27]: 3 (Herbicidal rate of 40% or more and less than 70%)
